{
  "source": "paper PMC11729428",
  "about": "“New Potent Inhibitor of Transforming Growth Factor-Beta (TGFβ) Signaling that is Efficacious against Microsatellite Stable Colorectal Cancer Metastasis in Combination with Immune Checkpoint Therapy in Mice” (ACS Pharmacology & Translational Science, 2024)",
  "key": {"[1]": {"details": "rat, in vivo", "procedure": "(§1) Sprague-Dawley rats were procured from Hylasco Bio-Technology Pvt. Ltd., Hyderabad. After completion of\n(§2) the acclimatization period twelve healthy rats were randomly allocated to the control and treatment g roups.\n(§3) mg/kg BID) treated animals, having three rats/sex/group. Rats from control group received vehicle, consisting\n(§4) quantity sufficient to 1% w/v Carboxy Methyl Cellulose Sodium Salt. Rats from treatment groups were\n(§5) administered with suspensions of the indicated drugs in vehicle, orally twice a day fo r an intended period of 28\n(§6) consecutive days. The dosing volume was kept constant at 10 mL/kg for each rat.\n(§7) clinical sign that worsened during the treatment, were necropsied in the shortest time for ethical reasons. The\n(§8) rest of the rats were necropsied at the end of the treatment.\n(§9) asphyxiation on day 29, except for one group of HYL001 treated rats with 71 mg/kg BID, that were allowed to\n(§10) recover from treatment for further 28 days.\n(§11) The rats were subjected to detailed gross pathological examination which included careful examination of the\n(§12) external surface of the body, all orifices and the cranial, thoracic and abdominal cavities and their contents. After\n(§13) gross pathological examination the vital organs were trimmed of any adherent tissue and were weighed wet.\n(§14) Paired organs were weighed together. Organ weights relative to terminal body weights were calculated for each\n(§15) Parameters evaluated during the study included in-life observations such as clinical signs observation, body\n(§16) weights, percent body weight gains, and feed consumption. Parameters like hematology, clinical chemistry,\n(§17) gross pathology, and organ weights were evaluated on the day of termination. Several organs/tissues were further\n(§18) processed and evaluated for histopathology, where special attention was given to bones, gastrointestinal system\n(§19) (stomach, duodenum, jejunum, ileum, caecum, colon and rectum), heart, and vascular lesions in the aorta and\n(§20) coronary arteries. For histopathology, 3-5 μM thick tissue sections were cut and stained with hematoxylin-eosin\n(§21) stain. The heart was trimmed by longitudinally bisecting along a plane perpendicular to the plane of the\n(§22) pulmonary artery to expose the right atrioventricular, left atrioventricular, and aortic valves. Both halves of the\n(§23) heart were embedded as hemisection in paraffin with the cut surface down. Blocks were sectioned to obtain at\nleast three heart valves."}, "[2]": {"details": "oral, cited from earlier work"}, "[3]": {"assay": "Exploratory toxicology study in SD rats", "details": "for Degeneration of heart valves (histopathology grade): HYL001: after 4 weeks of repeated dosing, vactosertib: after 7–8 days of treatment; for Retained hypertrophied cartilage physis in sternum and femur (grade): vactosertib: all animals, HYL001: a few females", "procedure": "as §1, §2, §3, §4, §5, §6, §7, §8, §9, §10, §11, §12, §13, §14, §15, §16, §17, §18, §19, §20, §21, §22, §23\nleast three heart valves."}, "[4]": {"assay": "Exploratory toxicology study in Balb/C mice", "assay_type": "in vivo", "protocol": "In comparison to that in rats, toxicity of TGFβ receptor-1 inhibitors in mice was less severe (Figure 4). […] Histopathology examination in bones found relatively mild phenotypes (Figure 4A).\nperformed using GraphPad Prism statistical software version 5.02 for Windows, GraphPad Software, San Diego\nThe study design in mice was similar as in rats, except 5 mice of each sex were used (n=10 in total), and that\nthere was not a recovery group. All analyses were performed at day 29 after termination of treatment."}, "[5]": {"test_system": "mouse tumor organoids (MTOs), CRC liver metastases", "assay": "Prevention of liver metastasis formation after MTO injection (monotherapy)", "assay_type": "in vivo, mice", "details": "0.1× dose: 71 mg/kg BID HYL001, 80 mg/kg BID galunisertib", "protocol": "We first assayed the capacity of HYL001 to inhibit liver metastasis formation as a monotherapy. In this model, we inoculated MTOs derived from liver metastases into the portal vein (by intrasplenic or direct intravenous injection) to model their becoming trapped in hepatic sinusoids and, depending on their metastatic capacity, the initiation of liver nodules. […] Remarkably, 0.1 × mol equiv (71 mg/kg BID) of HYL001 was sufficient to prevent metastasis formation in 10 out of 11 animals.\nFigure 5 HYL001 prevents metastasis formation in vivo. (A) Experimental scheme, including injection of MTOs. Experimental end point was at day 28, 2 weeks after treatment stop. […] (B) Liver metastases (Mets) were counted at end points; each point represents one mouse. Nonparametric Mann–Whitney U test, two-tailed. ns: P > 0.05; *P < 0.05; **P < 0.01; ***P < 0.001; (C) representative images of H & E whole slides containing liver sections from mice treated with TGFβ inhibitors; dashed line circles delimit metastases. […] 0.3× and 0.1×: dilutions thereof. Bars, 10 mm.\nFor all tumor cell injections, C57BL/6J (or athymic BALB/C nu/nu) mice were purchased from Janvier at 6 weeks of age and injected at 7–8 weeks. Sex was matched with the origin of the tumor organoids, i.e., males for this study. […] Visible liver metastases were counted, and data were analyzed using GraphPad Prism software (v.7.03). […]"}, "[6]": {"test_system": "TGFβ targets (phospho-SMAD2, CTHRC1, Caldesmon)", "assay": "Protein expression of TGFβ targets in established liver metastases", "assay_type": "in vivo", "details": "mice with established liver metastases", "source_text": "(Figure S4). […] Moreover, these mice were resistant to immune checkpoint therapy like human patients with pMMR/MSS CRC are in the clinic.[5],[33]"}, "Solubility": {"assay": "Solubility", "assay_type": "physicochemical", "protocol": "The solubilities in this solution are 0.7 mg/mL (1b) and 0.23 mg/mL (1a). In most in vivo experiments, a homogeneous suspension in the following vehicle was used: sodium carboxymethylcellulose (1%), sodium dodecyl sulfate (0.4%), polyvinylpyrrolidone (0.085%), and antifoam-A (0.05%). The solubilities in this vehicle are approximately 0.15 mg/mL (1b) and 0.09 mg/mL (1a). […] Therefore, as a proof-of-concept, we leveraged the hydroxyl handle to design HYL002. We added a carbonyl-4-piperidinopiperidine group, in analogy to the ester that solubilizes SN-38 into irinotecan, and that can be cleaved via hydrolysis inside cells[19] (Figure S1). HYL001 reacted with commercially available 4-piperidinopiperidine-1-carbonyl chloride in chloroform using triethylamine and catalytic amounts of DMAP (Scheme S1). We then transformed the resulting compound HYL002 into the corresponding HCl salt to aid the in vivo drug formulation. The free base was dissolved in dioxane under N2, where it was treated dropwise with 10 equiv of 4 M HCl in dioxane at room temperature with vigorous stirring. The reaction mixture was then taken to dryness in vacuo, giving the HCl salt of HYL002."}, "p38α": {"target": "T1, p38α (Homo sapiens, UniProt Q16539)", "T1 construct": "p38alpha was used as a full -length recombinant protein; purchased Eurofins Pharma Discovery Services / Eurofins Cerep (Kinase Profiler service)", "T1 sequence (Q16539 whole entry)": "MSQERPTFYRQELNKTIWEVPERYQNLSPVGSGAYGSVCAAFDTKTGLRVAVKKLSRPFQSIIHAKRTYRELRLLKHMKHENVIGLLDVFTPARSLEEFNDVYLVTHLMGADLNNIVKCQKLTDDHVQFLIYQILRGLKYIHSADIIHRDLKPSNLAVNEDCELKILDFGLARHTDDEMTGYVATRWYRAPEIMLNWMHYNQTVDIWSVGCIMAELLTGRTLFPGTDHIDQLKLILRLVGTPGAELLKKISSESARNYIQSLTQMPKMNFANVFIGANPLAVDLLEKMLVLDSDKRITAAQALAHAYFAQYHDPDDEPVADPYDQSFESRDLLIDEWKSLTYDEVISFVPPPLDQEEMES", "assay": "Radiometric in vitro kinase activity assay (Kinase Profiler)", "assay_type": "biochemical", "details": "full-length recombinant protein; read-out: kinase inhibition IC50, p38α", "protocol": "5. Methods for In vitro characterizations of HYL001\nKinase affinity and selectivity […]\nThe activity, measured as IC50, of inhibitors was determined by radiometric γ-33P-ATP-mediated in vitro phosphorylation assays, using the Kinase Profiler service from Eurofins Pharma Discovery Services (Wolverhampton, UK) and Eurofins Cerep (Celle L’Evescault, France). Compounds, prepared in 100% DMSO, were tested using a 9-point curve with half -log serial dilutions (1–10,000 nM). […]"}, "ALK2 (ACVR1)": {"target": "T2, ALK2 (ACVR1) (Homo sapiens, UniProt Q04771)", "T2 construct": "purchased Eurofins/DiscoveryX (KINOMEscan service)", "T2 sequence (Q04771 21-509)": "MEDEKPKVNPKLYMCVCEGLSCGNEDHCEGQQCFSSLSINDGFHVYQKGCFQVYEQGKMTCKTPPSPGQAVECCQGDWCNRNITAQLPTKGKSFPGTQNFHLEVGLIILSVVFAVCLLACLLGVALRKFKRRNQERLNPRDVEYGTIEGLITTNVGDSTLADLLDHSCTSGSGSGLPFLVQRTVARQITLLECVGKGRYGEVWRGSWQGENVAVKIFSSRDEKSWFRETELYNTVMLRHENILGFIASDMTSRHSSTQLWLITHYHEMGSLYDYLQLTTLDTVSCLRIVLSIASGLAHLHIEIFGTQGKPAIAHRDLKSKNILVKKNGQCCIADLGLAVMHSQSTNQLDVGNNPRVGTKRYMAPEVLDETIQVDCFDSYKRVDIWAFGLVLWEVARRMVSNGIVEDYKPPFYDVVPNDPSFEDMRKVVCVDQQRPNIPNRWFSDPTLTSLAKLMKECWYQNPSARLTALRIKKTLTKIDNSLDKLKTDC", "parameters": "method as in earlier work", "details": "reported data ref 15; read-out: Binding constant (Kd) ALK2 (ACVR1); cited from earlier work"}, "[7]": {"details": "aqueous dosing vehicle (NaCMC/SDS/PVP/antifoam-A), aqueous with cosolvent or surfactant or cyclodextrin, vehicle: sodium carboxymethylcellulose (1%), sodium dodecyl sulfate (0.4%), polyvinylpyrrolidone (0.085%), antifoam-A (0.05%), read-out: Solubility"}},
  "note": "Read-outs that look alike come from different tables or passages of the source.",
  "data": [
    {"smiles": "Cc1cccc(-c2[nH]c(CNc3ccccc3F)nc2-c2ccc3ncnn3c2)n1", "note": "[vactosertib, N -((4-([1,2,4]Triazolo[1,5-a]Pyridin-6-Yl)-5-(6-Methylpyridin-2-Yl)-1 H -Imidazole-2-Yl)Methyl)-2-Fluoroaniline]", "values": [
      {"measurement": "Animals showing a curved sternum at death or end point", "setting": "[1]", "value": "all"},
      {"measurement": "Microscopic findings along the gastrointestinal tract", "setting": "[1]", "value": "minimal hyperplasia of the nonglandular stomach and chronic inflammation observed in one female rat"},
      {"measurement": "AUCinf", "setting": "[2]; mice (FVB/N), 10 mg/kg ref 21", "value": 752, "unit": "ng·h/mL"},
      {"measurement": "AUClast", "setting": "[2]; mice (FVB/N), 10 mg/kg ref 21", "value": 724, "unit": "ng·h/mL"},
      {"measurement": "Cl/F", "setting": "[2]; mice (FVB/N), 10 mg/kg ref 21", "value": 222, "unit": "mL/min/kg"},
      {"measurement": "Cmax", "setting": "[2]; mice (FVB/N), 10 mg/kg ref 21", "value": 625, "unit": "ng/mL"},
      {"measurement": "T1/2", "setting": "[2]; mice (FVB/N), 10 mg/kg ref 21", "value": 196, "unit": "min"},
      {"measurement": "Tmax", "setting": "[2]; mice (FVB/N), 10 mg/kg ref 21", "value": 30, "unit": "min"},
      {"measurement": "Vss/F", "setting": "[2]; mice (FVB/N), 10 mg/kg ref 21", "value": 18, "unit": "L/kg"},
      {"measurement": "Degeneration of heart valves (histopathology grade)", "setting": "[3]", "value": "moderate"},
      {"measurement": "Animals with chronic inflammation of the myocardium", "setting": "[3]; at early end points (day 7–8)", "value": "all 6"},
      {"measurement": "Mortality", "setting": "[3]; group 4, equimolar dose (82 mg/kg BID)", "value": "all female rats were found dead on day 7 and all male rats had to be sacrificed on day 8"},
      {"measurement": "Retained hypertrophied cartilage physis in sternum and femur (grade)", "setting": "[3]", "value": "mild–moderate"},
      {"measurement": "Mortality or signs of morbidity", "setting": "[4]; equimolar dose, mice", "value": "No mortality or signs of morbidity"},
      {"measurement": "Female mice with slight inflammatory infiltrates in liver", "setting": "[4]; female, Balb/C, mouse, in vivo, 29 day", "value": "4/5"},
      {"measurement": "Neutrophil count", "setting": "[4]; mouse, in vivo", "value": "slight increase"}
    ]},
    {"smiles": "Cc1cccc(-c2nn3c(c2-c2ccnc4ccc(O)cc24)CCC3)n1", "note": "[HYL001, 4-(2-(6-Methylpyridin-2-yl)-5,6-dihydro-4H-pyrrolo[1,2-b]pyrazol-3-yl)quinolin-6-ol]", "values": [
      {"measurement": "Animals showing a curved sternum at death or end point", "setting": "[1]", "value": "Some female rats"},
      {"measurement": "Number of mice without detectable liver metastases (liver mets NO)", "setting": "[5]", "value": "10 out of 11"},
      {"measurement": "Protein expression of TGFβ targets (phospho-SMAD2, CTHRC1, Caldesmon)", "setting": "[6]", "value": "marked decrease"},
      {"measurement": "Degeneration of heart valves (histopathology grade)", "setting": "[3]", "value": "minimal to mild"},
      {"measurement": "Heart abnormalities", "setting": "[3]; low-dose group 1 (25 mg/kg BID)", "value": "no heart abnormalities were observed"},
      {"measurement": "no-observed-adverse-effect level", "setting": "[3]; male rats", "value": 25, "unit": "mg/kg BID"},
      {"measurement": "Effects on body weight (gain), feed consumption, hematology, and clinical chemistry analytes", "setting": "[3]; rats of both sexes, oral, either dose level", "value": "no HYL001-related effects"},
      {"measurement": "Retained hypertrophied cartilage physis in sternum and femur (grade)", "setting": "[3]", "value": "mild"},
      {"measurement": "solubility", "setting": "Solubility; PBS/2-hydroxypropyl-β-cyclodextrin solution, aqueous with cosolvent or surfactant or cyclodextrin, solution of PBS/2-hydroxypropy-β-cyclodextrin (1 g/mL), read-out: Solubility", "value": 230, "unit": "µg/mL"},
      {"measurement": "solubility", "setting": "Solubility; [7]", "value": "~90", "unit": "µg/mL"},
      {"measurement": "Solubility in water", "setting": "Solubility", "value": "poorly soluble"},
      {"measurement": "Female mice with slight inflammatory infiltrates in liver", "setting": "[4]; mouse, in vivo", "value": "2/5"},
      {"measurement": "Mortality or signs of morbidity", "setting": "[4]; mouse, in vivo", "value": "No mortality or signs of morbidity"},
      {"measurement": "IC50", "setting": "p38α", "value": 548, "unit": "nM"}
    ]},
    {"smiles": "Cc1cccc(-c2nn3c(c2-c2ccnc4ccc(C(N)=O)cc24)CCC3)n1", "note": "[galunisertib]", "values": [
      {"measurement": "Number of mice with detectable liver metastases (liver mets YES)", "setting": "[5]", "value": "All treated animals developed metastases"},
      {"measurement": "AUClast", "setting": "[2]; mice (♀ CD-1), 75 mg/kg ref 20", "value": 3110, "unit": "ng·h/mL"},
      {"measurement": "Cmax", "setting": "[2]; mice (♀ CD-1), 75 mg/kg ref 20", "value": 3330, "unit": "ng/mL"},
      {"measurement": "T1/2", "setting": "[2]; mice (♀ CD-1), 75 mg/kg ref 20", "value": 84, "unit": "min"},
      {"measurement": "Tmax", "setting": "[2]; mice (♀ CD-1), 75 mg/kg ref 20", "value": 30, "unit": "min"},
      {"measurement": "solubility", "setting": "Solubility; [7]", "value": "~150", "unit": "µg/mL"},
      {"measurement": "solubility", "setting": "Solubility; solution of PBS/2-hydroxypropy-β-cyclodextrin (1 g/mL)", "value": 700, "unit": "µg/mL"},
      {"measurement": "Solubility in water", "setting": "Solubility", "value": "poorly soluble"},
      {"measurement": "Kd", "setting": "ALK2 (ACVR1)", "value": 35700, "unit": "nM"},
      {"measurement": "IC50", "setting": "p38α", "value": 920, "unit": "nM"}
    ]}
  ]
}
